Laboratory results reported in patent US12005126B2, “Compositions for oral administration of pentosan polysulfate in form of nanoparticles with improved intestinal absorption” (NEXTRARESEARCH S.R.L., priority 2018, dated 2024).

Experiment: In-vivo pharmacokinetics study in rats after oral administration
Settings: 1 mL, PPS conc. 4.64 mg/mL
Protocol: The bioavailability of PPS from the formulations of this invention can be evaluated in rats upon oral administration by gavage of the powder dispersion in comparison to the solution of non-formulated PPS
Plasma concentration versus time curve were evaluated in an in-vivo pharmacokinetics study carried out in rats after oral administration of 1 mL of a PPS aqueous solution having a concentration 4.64 mg/mL (Form I) or 1 mL of the PPS/chitosan nanosuspension (PPS conc. 4.64 mg/mL). In the nanosuspension the ratio between the volume of solution of PPS (6.5 mg/mL) and of solution of chitosan (6.5 mg/mL) used for the production of the nanoparticles was 5:2 (v/v).

Area under the curve: 1306 µg·min/mL
tmax: 1 h
Substance: Pentosan Polysulfate sodium [PPS solution]
